Laboratory results taken from article PMC5986797, “Laminin heparin-binding peptides bind to several growth factors and enhance diabetic wound healing” (Nature Communications, 2018).
“Also recorded” adds a separate entry of the source.

Legend:
[1] = test system: GF; test: ELISA: GF binding to laminin peptides, stated for the tested GFs together; set-up: species or system human; settings: 10 µg/mL laminin peptide coated, 1 μg/mL GF, n = 4
[2] = test system: recombinant human syndecan-1, syndecan-2, syndecan-3, and syndecan-4; test: ELISA: syndecan binding to laminin peptides; set-up: key to Interaction with Syndecan: ++ indicates high affinities; + indicates medium/low affinities; settings: for binding to syndecans 1–4 (ELISA): 10 µg/mL laminin peptide coated (legend; method 1 μg/mL), 1 μg/mL histidine-tagged syndecan, vs BSA-coated wells, n = 8; for Interaction with Syndecan: summary table
Protocol: ELISA tests were performed as described above. […] A concentration of 1 μg/mL of BSA served as non-binding protein control. After blocking with 2% BSA PBS-T solution, 1 μg/mL of the recombinant human syndecan-1, syndecan-2, syndecan-3, and syndecan-4 (all syndecan proteins are histidine-tagged; SinoBiological) were added. Bound GF was detected with anti-histidine tag antibody (BioLegend, Catalog No. 562504, 1:1000 dilution).

[3] = ELISA: biotinylated heparin binding to laminin peptides; set-up: key to Interaction with Heparin: ++ indicates high affinities; + indicates medium/low affinities; settings: for binding to heparin (ELISA): 10 µg/mL laminin peptide coated (legend; method 1 μg/mL), 10 µg/mL biotinylated heparin, vs BSA-coated wells, n = 4; for Interaction with Heparin: summary table
Protocol: (§1) ELISA tests were performed as described above. In brief, […] recombinant protein, laminin alpha 4 LG domain recombinant protein (R&D Systems), laminin alpha 5 LG domain recombinant protein (LD BioPharma), or laminin peptide (sequences are described in Supplementary Table 1, chemically synthesized by Genscript) in PBS for 2 h at 37 °C. A concentration of 1 μg/mL of BSA served as non-binding protein control. After blocking with 2% BSA PBS-0.05% Tween 20 (PBS-T) solution, 1 μg/mL of the recombinant human proteins (VEGF-A121, VEGF-A165, PlGF-1, PlGF-2, PDGF-BB, or FGF-2) or 10 μg/mL of biotinylated heparin (Sigma-Aldrich) were added. Bound GF was detected with biotinylated antibodies for human VEGF-A, PlGF, PDGF-BB (R&D Systems, Catalog No. DY220, 1:180 dilution), or FGF-2 (R&D Systems). The antibodies were detected by streptavidin-HRP (R&D Systems).

[4] = test system: HUVEC cells; test: Migration assay (transwell); assay type: cell-based, human; settings: 0.1 μM peptide, in the presence and absence of 30 ng/mL VEGF-A165; 6 h; n = 4
Protocol: A QCM 24-Well Colorimetric Cell Migration Assay Kit was used to perform migration assay. Both sides of inserts were coated with 0.1 μM of bovine collagen I (C4243, Sigma-Aldrich) for 1 h at 37 °C. Then, the inserts were washed with water, dried in a laminar flow cabinet, and disposed on 24-well cell culture plate covers. Solutions containing 30 ng/mL of VEGF-A165 preincubated with or without 0.1 μM of LAMA3_3043–3067 peptide in a medium (MCDB-131, 0.05% BSA) were added to the bottom side of the transwell (500 μL/well). Directly thereafter, HUVEC cells (Lonza) in a medium containing 0.05% BSA (300 μL/transwell, 4 × 10^4 cells/transwell) were added to the transwell upper parts. After 6 h, migrated cells were stained and absorbance at 560 nm was measured according to the manufacturer’s instructions.

[5] = test system: human umbilical vein endothelial cells (HUVEC); test: Cell adhesion assay, HUVEC; assay type: cell-based; set-up: key to Cell adhesion HUVEC: ++ indicates high affinities; + indicates medium/low affinities
Protocol: A total of 96-well plates (non-tissue culture treated, Greiner Bio-One) were pre-coated with 1 μg/mL with laminin HBD peptides in PBS for 2 h at 37 °C, followed by blocking with 2% BSA PBS for 1 h at RT. […] Cells were plated at 3000 cells/well on laminin peptide pre-coated plates and incubated for 30 min at 37 °C, 5% CO2. Then, the medium was removed, and wells were quickly washed three times with PBS. Cell numbers were quantified using a CyQUANT assay, according to the manufacturer’s instructions (Invitrogen). All cell lines were checked for mycoplasma contamination and used in passages from 5 to 8.

[6] = test system: GF; test: ELISA: GF binding to laminin peptides, stated for the tested GFs together; set-up: species or system human; key: ++ indicates high affinities; + indicates medium/low affinities; settings: summary table
Protocol: (§2) ELISA tests were performed as described above. In brief, ELISA plates were coated with 1 μg/mL of laminin alpha 3 LG domain recombinant protein, laminin alpha 4 LG domain recombinant protein (R&D Systems), laminin alpha 5 LG domain recombinant protein (LD BioPharma), or laminin peptide (sequences are described in Supplementary Table 1, chemically synthesized by Genscript) in PBS for 2 h at 37 °C. A concentration of 1 μg/mL of BSA served as non-binding protein control. After blocking with 2% BSA PBS-0.05% Tween 20 (PBS-T) solution, 1 μg/mL of the recombinant human proteins (VEGF-A121, VEGF-A165, PlGF-1, PlGF-2, PDGF-BB, or FGF-2) or 10 μg/mL of biotinylated heparin (Sigma-Aldrich) were added. Bound GF was detected with biotinylated antibodies for human VEGF-A, PlGF, PDGF-BB (R&D Systems, Catalog No. DY220, 1:180 dilution), or FGF-2 (R&D Systems). The antibodies were detected by streptavidin-HRP (R&D Systems).

[7] = test system: PDGF-BB; test: ELISA: PDGF-BB binding to laminin LG domain / laminin peptide; set-up: species or system human; settings: 10 µg/mL laminin peptide coated (legend; method 1 μg/mL); 1 μg/mL GF; vs BSA-coated wells; n = 4
Protocol: as §2

[8] = test system: FGF-2; test: ELISA: FGF-2 binding to laminin LG domain / laminin peptide; set-up: species or system human; settings: 10 µg/mL laminin peptide coated (legend; method 1 μg/mL); 1 μg/mL GF; vs BSA-coated wells; n = 4
Protocol: as §2

[9] = test system: PlGF-2; test: ELISA: PlGF-2 binding to laminin LG domain / laminin peptide; set-up: species or system human; settings: 10 µg/mL laminin peptide coated (legend; method 1 μg/mL); 1 μg/mL GF; vs BSA-coated wells; n = 4
Protocol: as §2

[10] = test system: VEGF-A165; test: ELISA: VEGF-A165 binding to laminin LG domain / laminin peptide; set-up: species or system human; settings: 10 µg/mL laminin peptide coated (legend; method 1 μg/mL); 1 μg/mL GF; vs BSA-coated wells; n = 4
Protocol: as §1

[11] = test system: human lung fibroblasts; test: Cell adhesion assay, fibroblasts; assay type: cell-based; set-up: key to Cell adhesion Fibroblast: ++ indicates high affinities; + indicates medium/low affinities; settings: for Cell adhesion Fibroblast: summary table; for fibroblast attachment on peptide-coated surfaces: without EDTA, 1 μg/mL peptide coated, 3000 cells/well, 30 min, 37 °C, FGM-2, 1% FBS, CyQUANT, vs BSA, n = 10
Protocol: A total of 96-well plates (non-tissue culture treated, Greiner Bio-One) were pre-coated with 1 μg/mL with laminin HBD peptides in PBS for 2 h at 37 °C, followed by blocking with 2% BSA PBS for 1 h at RT. Cell adhesion assays were performed using human lung fibroblasts (Lonza) in FGM-2 medium (Lonza) or human umbilical vein endothelial cells (HUVEC; Lonza) in EGM-2 medium (Lonza) supplemented with 1% fetal bovine serum (FBS) and […] VEGF-A165, with or without 5 mM EDTA (Sigma-Aldrich). Cells were plated at 3000 cells/well on laminin peptide pre-coated plates and incubated for 30 min at 37 °C, 5% CO2. Then, the medium was removed, and wells were quickly washed three times with PBS. Cell numbers were quantified using a CyQUANT assay, according to the manufacturer’s instructions (Invitrogen). All cell lines were checked for mycoplasma contamination and used in passages from 5 to 8.

[12] = test system: GF (VEGF-A165, PlGF-2, FGF-2) binding to laminin; test: Inhibition of laminin–GF binding by heparin (ELISA); set-up: species or system human; settings: 10 µM heparin; 10 µg/mL laminin coated; 1 μg/mL VEGF-A165, PlGF-2 or FGF-2; n = 4
Protocol: ELISA plates (med-binding) were coated with 10 μg/mL laminin isoforms (–111, –211, –221, –411, –421, –511, and –521) in PBS for 2 h at 37 °C. Then, wells were blocked with 2% BSA-containing PBS-T and further incubated with 1 μg/mL each of VEGF-A165, PlGF-2, or FGF-2 for 60 min at RT with 10 μM heparin. Next, the wells were incubated with biotinylated anti-VEGF (R&D Systems, Catalog No. DY293B, 1:60 dilution), anti-PlGF (R&D Systems, Catalog No. DY264, 1:180 dilution), or anti-FGF-2 (R&D Systems, Catalog No. DY233, 1:60 dilution) antibodies. The antibodies were detected by streptavidin-HRP (R&D Systems).

[13] = target: PlGF-2; test: SPR: laminin-521 against PlGF-2; assay type: binding, human; settings: laminin-521 immobilized (~2000 RU) on C1 chip, GF flown over, Langmuir fit
Protocol: (§3) SPR measurements were made with a Biacore 3000 SPR system (GE Healthcare). Laminin-521 or laminin LAMA3_2928–3150 was immobilized via amine coupling on a C1 chip (GE Healthcare) for ~2000 or ~1000 resonance units (RU), respectively, according to the manufacturer’s instructions. VEGF-A165, PDGF-BB, or PlGF-2 was flown at increasing concentrations in the running buffer (0.01 M HEPES, pH 7.4, 0.15 M NaCl, and 0.005% v/v surfactant P20) at 20 μL/min. The sensor chip was regenerated with 50 mM NaOH for every cycle. Specific bindings of GFs to laminin were calculated by comparison to a non-functionalized channel used as a reference. Experimental results were fitted with Langmuir binding kinetics using BIAevaluation software (GE Healthcare).

[14] = target: PDGF-BB; test: SPR: laminin-521 against PDGF-BB; assay type: binding, human; settings: laminin-521 immobilized (~2000 RU) on C1 chip, GF flown over, Langmuir fit
Protocol: as §3

binding to syndecans 1–4 (ELISA) [2]	Interaction with Syndecan [2]	binding to heparin (ELISA) [3]	Interaction with GF [6]	binding to PDGF-BB (ELISA), peptides [7]	binding to FGF-2 (ELISA), peptides [8]	binding to PlGF-2 (ELISA), peptides [9]	binding to VEGF-A165 (ELISA), peptides [10]	Interaction with Heparin [3]	Substance	binding to the tested GFs (ELISA) [1]	Cell adhesion Fibroblast [11]	fibroblast attachment on peptide-coated surfaces [11]	also measured
weak binding	+	did not bind to heparin							ARKASRRSRQPARH [LAMA5_3312–3325, chemically synthesized human laminin LAMA5 linker peptide, 14 aa, subdomain of LAMA5_3300–3330]	did not show particular binding to any tested GF			
significant binding	++	bound to heparin	++	bound	bound	bound	bound	++	RLVFALGTDGKKLRIKSKEKCNDGK [LAMA3_3043–3067, chemically synthesized human laminin LAMA3 LG4 HBD peptide, 25 aa]		++	enhancement of fibroblast attachment	degree of migration of HUVEC cells, peptide [4]: did not increase the degree of cell migration; HUVEC attachment in the presence of EDTA ([5]; 5 mM EDTA, 1 μg/mL peptide coated, 3000 cells/well, 30 min, 37 °C, CyQUANT, n = 10): even in the presence of EDTA; Cell adhesion HUVEC ([5]; summary table): ++; HUVEC attachment on peptide-coated surfaces ([5]; without EDTA, 1 μg/mL peptide coated, 3000 cells/well, 30 min, 37 °C, 100 ng/mL VEGF-A165, 1% FBS, CyQUANT, n = 10): promoted HUVEC attachment
significant binding	++	bound to heparin	++	bound	bound	bound	bound	++	RQRSRPGRWHKVSVRWEKNR [LAMA5_3417–3436, chemically synthesized human laminin LAMA5 LG4 peptide, 20 aa]		+	enhancement of fibroblast attachment	
									heparin				inhibition of GF binding to laminin by excess heparin [12]: inhibited
									laminin-521: recombinant human full-length laminin isoform (BioLamina)				Kd [13]: 0.0129 µM; Kd [14]: 0.0242 µM

Substance	binding to syndecans 1–4 (ELISA) [2]	Interaction with Syndecan [2]	binding to heparin (ELISA) [3]	Interaction with GF [6]	binding to PDGF-BB (ELISA), peptides [7]	binding to FGF-2 (ELISA), peptides [8]	binding to PlGF-2 (ELISA), peptides [9]	binding to VEGF-A165 (ELISA), peptides [10]	Interaction with Heparin [3]	binding to the tested GFs (ELISA) [1]	Cell adhesion Fibroblast [11]	fibroblast attachment on peptide-coated surfaces [11]	also measured
TLPDVGLELEVR [LAMA5_3539–3550, chemically synthesized human laminin LAMA5 LG5 peptide, 12 aa]	did not show binding		did not show binding to heparin; also recorded: do not show heparin binding	+						significantly bound to all tested GFs			
